Patent US20010039287A1, “AROMATIC SULFONE HYDROXAMIC ACID METALLOPROTEASE INHIBITOR” (priority 1997, published 2001)
Structures can show the parent of a compound that is named as a salt. Where two headings read alike, the source gives them in different places.

What was measured:
recombinant human MMP-13 = recombinant human MMP-13 (Homo sapiens, UniProt P45452); assay: biochemical
recombinant human MMP-1 = target: T1, recombinant human MMP-1 (Homo sapiens, UniProt P03956); assay: biochemical
T1 construct: made in house; host or cells: transfected HT-1080 cells (provided by Dr. Harold Welgus, Washington University)
T1 sequence (P03956 100-469): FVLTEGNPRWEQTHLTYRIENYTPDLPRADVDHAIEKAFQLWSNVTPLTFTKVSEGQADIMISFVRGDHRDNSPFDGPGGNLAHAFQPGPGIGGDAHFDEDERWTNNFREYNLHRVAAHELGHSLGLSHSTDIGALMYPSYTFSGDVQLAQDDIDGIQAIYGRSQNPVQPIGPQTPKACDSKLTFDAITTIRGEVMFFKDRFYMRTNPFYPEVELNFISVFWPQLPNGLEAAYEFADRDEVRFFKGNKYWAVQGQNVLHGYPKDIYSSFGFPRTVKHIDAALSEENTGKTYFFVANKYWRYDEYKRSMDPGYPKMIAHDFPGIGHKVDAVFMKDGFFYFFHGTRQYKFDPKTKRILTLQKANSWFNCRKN

recombinant human MMP-2 = target: T2, recombinant human MMP-2 (Homo sapiens, UniProt P08253); assay: biochemical
T2 sequence (P08253 110-660): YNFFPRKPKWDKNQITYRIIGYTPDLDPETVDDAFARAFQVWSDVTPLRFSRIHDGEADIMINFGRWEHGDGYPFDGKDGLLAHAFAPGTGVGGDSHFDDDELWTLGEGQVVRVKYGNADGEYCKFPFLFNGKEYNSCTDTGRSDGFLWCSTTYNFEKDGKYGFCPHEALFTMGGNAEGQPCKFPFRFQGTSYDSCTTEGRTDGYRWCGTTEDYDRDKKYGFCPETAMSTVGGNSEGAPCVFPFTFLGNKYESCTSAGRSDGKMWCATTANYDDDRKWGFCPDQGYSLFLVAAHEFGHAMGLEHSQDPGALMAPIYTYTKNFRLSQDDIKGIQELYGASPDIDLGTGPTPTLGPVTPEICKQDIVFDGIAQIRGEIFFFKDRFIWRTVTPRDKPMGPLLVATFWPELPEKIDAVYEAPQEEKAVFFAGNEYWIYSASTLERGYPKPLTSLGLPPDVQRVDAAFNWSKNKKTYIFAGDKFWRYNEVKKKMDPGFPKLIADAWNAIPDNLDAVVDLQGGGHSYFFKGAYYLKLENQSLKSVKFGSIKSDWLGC

recombinant human MMP-9 = recombinant human MMP-9 (Homo sapiens, UniProt P14780); assay: biochemical
recombinant human MMP-9, sequence (P14780 107-707 limits assumed): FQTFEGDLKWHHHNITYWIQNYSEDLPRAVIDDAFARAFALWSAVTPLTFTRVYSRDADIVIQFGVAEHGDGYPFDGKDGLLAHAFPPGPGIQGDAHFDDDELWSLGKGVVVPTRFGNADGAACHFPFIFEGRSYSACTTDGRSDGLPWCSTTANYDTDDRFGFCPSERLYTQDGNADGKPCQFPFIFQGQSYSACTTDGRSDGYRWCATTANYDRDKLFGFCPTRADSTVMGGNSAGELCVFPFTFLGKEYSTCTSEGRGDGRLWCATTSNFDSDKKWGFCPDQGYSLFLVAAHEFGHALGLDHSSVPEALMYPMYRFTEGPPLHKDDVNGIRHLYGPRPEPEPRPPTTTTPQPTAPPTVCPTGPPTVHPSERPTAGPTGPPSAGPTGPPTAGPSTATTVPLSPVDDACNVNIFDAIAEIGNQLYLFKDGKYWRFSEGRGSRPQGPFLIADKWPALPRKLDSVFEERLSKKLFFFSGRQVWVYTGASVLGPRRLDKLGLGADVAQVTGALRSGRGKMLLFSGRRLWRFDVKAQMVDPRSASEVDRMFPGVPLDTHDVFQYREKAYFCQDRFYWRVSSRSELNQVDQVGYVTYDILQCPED

[1] = set-up: AUC (0-∞): unit not given beside the values; details: for t½ Hour: Rat Intravenous 20 mpk
[2] = Inhibition Table B, read-out: MMP-13 IC50
[3] = Inhibition Table B, read-out: MMP-1 IC50
[4] = Inhibition Table B, read-out: MMP-2 IC50
[5] = Inhibition Table B, read-out: MMP-9 IC50

`NCC(=O)Nc1ccc(Sc2ccc(S(=O)(=O)C3(C(=O)NO)CCSCC3)cc2)cc1` [Example 118, tetrahydro-N-hydroxy-4-[[4-[4-hydroxyphenylglycine))phenyl] Sulfonyl 2H-thiopyran-4-carboxamide] gave an IC50 (recombinant human MMP-13; [2]) of 0.8 nM, an IC50 (recombinant human MMP-1; [3]) of 2850 nM and an IC50 (recombinant human MMP-2; [4]) of 0.3 nM. The IC50 (recombinant human MMP-9; [5]) was 50 nM and the “t½ Hour” value [1] was 1.85 h.
In the case of `O=C(NO)C1(S(=O)(=O)c2ccc(Sc3ccc(OC(F)(F)F)cc3)cc2)CCOCC1` [Example 73, tetrahydro-N-hydroxy-4-[[4-[4-(trifluoromethoxy)phenylthio]-phenyl]-sulfonyl]-2H-pyran-4-carboxamide], the IC50 (recombinant human MMP-13) is reported as < 0.1 nM, the IC50 (recombinant human MMP-1; [3]) is reported as 1140 nM and the IC50 (recombinant human MMP-2; MMP-2 IC50 (nM)) is reported as < 0.1 nM. For the same molecule, the IC50 (recombinant human MMP-9; [5]) was 0.2 nM and the “Blood Level @ 6 hr” value ([1]; rat, in vivo, po, 20 mg/kg) was 0.372 µg/mL.
For `CN1CCC(C(=O)NO)(S(=O)(=O)c2ccc(Sc3ccccc3)cc2)CC1.Cl` [Example 33, N-hydroxy-1-methyl-4-[[4-(phenylthio)phenyl]sulfonyl]-4-piperidinecarboxamide, Monohydrochloride], the IC50 (recombinant human MMP-13; [2]) was 0.8 nM, the IC50 (recombinant human MMP-1) was > 10000 nM and the IC50 (recombinant human MMP-2; [4]) was 0.5 nM. The IC50 (recombinant human MMP-9; [5]) was 9.4 nM and the “t½ Hour” value [1] was 1.91 h.
In the case of `Cl.O=C(NO)C1(S(=O)(=O)c2ccc(Oc3ccc(-n4cncn4)cc3)cc2)CCS(=O)(=O)CC1` [Example 53, Tetrahydro-N-hydroxy-4-[[4-[4-(1H-1,2,4-triazol-1-yl)phenoxy]-phenyl]-sulfonyl]-2H-thiopyran-4-carboxamide 1,1-dioxide, Monohydrochloride], the IC50 (recombinant human MMP-13; [2]) is reported as 1.5 nM, the IC50 (recombinant human MMP-1; [3]) is reported as > 10000 nM and the IC50 (recombinant human MMP-2; [4]) is reported as 0.3 nM. The IC50 (recombinant human MMP-9; [5]) was 92 nM and the “t½ Hour” value [1] was 0.97 h.
For `CCN1CCC(C(=O)NO)(S(=O)(=O)c2ccc(OCc3ccc(C(F)(F)F)cc3)cc2)CC1.Cl` [Example 438, 1-ethyl-N-hydroxy-4-[[4-[[4-[trifluoromethyl)phenyl]methoxy]-phenyl]sulfonyl]-4-piperidine-carboxamide, Monohydrochloride], the “t½ Hour” value [1] was 2.14 h.
In the case of `Cl.O=C(NO)C1(S(=O)(=O)c2ccc(Oc3ccc(-n4ccnc4)cc3)cc2)CCOCC1` [Example 99, tetrahydro-N-hydroxy-4-[[4-[4-(1H-imidazol-1-yl)phenoxy]phenyl]-sulfonyl]-2H-pyran-4-carboxamide, Monohydrochloride], the IC50 (recombinant human MMP-13; [2]) is reported as 1 nM, the IC50 (recombinant human MMP-1; [3]) is reported as > 10000 nM and the IC50 (recombinant human MMP-2; [4]) is reported as 0.4 nM. The “t½ Hour” value [1] was 0.68 h.
With `Cl.O=C(NO)C1(S(=O)(=O)c2ccc(Sc3ccncc3)cc2)CCOCC1` [Example 104, Tetrahydro-N-hydroxy-4-[[4-(4-pyridinylthio)phenyl]sulfonyl]-2H-pyran-4-carboxamide, Monohydrochloride] the IC50 (recombinant human MMP-13; [2]) was 0.65 nM, the IC50 (recombinant human MMP-1; [3]) was > 10000 nM and the IC50 (recombinant human MMP-2; [4]) was 1.5 nM. The IC50 (recombinant human MMP-9; [5]) was 42.8 nM and the “t½ Hour” value [1] was 0.66 h.
In the case of `C#CCN1CCC(C(=O)NO)(S(=O)(=O)c2ccc(Oc3ccc(C(C)C)cc3)cc2)CC1.Cl` [Example 414, N-hydroxy-4-[[4-[4-(1-methylethyl)phenoxy]phenyl]sulfonyl]-1-(2-propynyl)-4-piperidinecarboxamide, Monohdyrochloride], the “t½ Hour” value [1] is reported as 0.73 h.
With `Cl.O=C(NO)C1(S(=O)(=O)c2ccc(Oc3ccc(Cl)cc3)cc2)CCNCC1` [Example 93, 4-[[4-(4-chlorophenoxy)-phenyl]sulfonyl]-N-hydroxy-4-piperidinecarboxamide, Monohydrochloride] the IC50 (recombinant human MMP-13; [2]) was 0.7 nM, the IC50 (recombinant human MMP-1; [3]) was 8000 nM and the IC50 (recombinant human MMP-2; [4]) was 0.4 nM. For the same molecule, the IC50 (recombinant human MMP-9; [5]) was 3.5 nM and the “t½ Hour” value [1] was 1.81 h.
`O=C(NO)C1(S(=O)(=O)c2ccc(Oc3ccccc3)cc2)CC[S+]([O-])CC1` (stereo not drawn) [Example 111] showed an IC50 (recombinant human MMP-13; [2]) of 1.3 nM, an IC50 (recombinant human MMP-1; [3]) of 3700 nM and an IC50 (recombinant human MMP-2; [4]) of 0.5 nM. The “t½ Hour” value [1] was 0.65 h.
In the case of `O=C(NO)C1(S(=O)(=O)c2ccc(Oc3ccccc3)cc2)CCN(C2CC2)CC1` [Example 17], the IC50 (recombinant human MMP-13) is reported as 0.3 nM, the IC50 (recombinant human MMP-1; Inhibition Table A, read-out: MMP-1 IC50) is reported as 400 nM and the IC50 (recombinant human MMP-2; MMP-2 IC50 (nM)) is reported as 0.2 nM. For the same molecule, the IC50 (recombinant human MMP-9) was […], the “AUC (0-∞)” value ([1]; rat, in vivo) was 37.10 and the “Blood Level @ 3 min” value ([1]; rat, in vivo) was 63.44 µg/mL. The t1/2 ([1]; rat, in vivo) was 0.74 h, the BA ([1]; rat, in vivo, 20 mg/kg) was 35.9% and the BA % ([1]; rat, in vivo, 20 mg/kg) was 35.9%. For the same molecule, the “Blood Level @ 3 min” value ([1]; rat, in vivo, iv, 20 mg/kg) was 63.44 µg/mL.
In the case of `Cl.O=C(NO)C1(S(=O)(=O)c2ccc(Oc3ccc(OC(F)(F)F)cc3)cc2)CCNCC1` [Example 410, N-hydroxy-4-[[4-[(trifluoromethoxy)phenoxy]phenyl]sulfonyl]-4-piperidinecarboxamide, Monohydrochloride], the “t½ Hour” value [1] is reported as 1.78 h.
With `CC(C)c1ccc(Oc2ccc(S(=O)(=O)C3(C(=O)NO)CCOCC3)cc2)cc1` [Example 125] the IC50 (recombinant human MMP-13; [2]) was 0.5 nM, the IC50 (recombinant human MMP-1; [3]) was > 10000 nM and the IC50 (recombinant human MMP-2; [4]) was 0.4 nM. The IC50 (recombinant human MMP-9; [5]) was 7 nM and the “t½ Hour” value [1] was 0.73 h.
In the case of `CC(=O)N1CCC(C(=O)NO)(S(=O)(=O)c2ccc(Sc3ccccc3)cc2)CC1.Cl` [Example 36, 1-acetyl-N-hydroxy-4-[[4-(phenylthio)phenyl]sulfonyl]-4-piperidinecarboxamide, Monohydrochloride], the IC50 (recombinant human MMP-13; [2]) is reported as 0.6 nM, the IC50 (recombinant human MMP-1; [3]) is reported as 7300 nM and the IC50 (recombinant human MMP-2; [4]) is reported as 0.4 nM. For the same molecule, the IC50 (recombinant human MMP-9; [5]) was 8 nM and the “t½ Hour” value [1] was 0.65 h.
In the case of `O=C(NO)C1(S(=O)(=O)c2ccc(Oc3ccc(Cl)cc3)cc2)CCOCC1` [Example 100, 4-[[4-(4-chlorophenoxy)-phenyl]sulfonyl]-tetrahydro-N-hydroxy-2H-pyran-4-carboxamide], the “t½ Hour” value [1] is reported as 1.50 h.
With `C#CCN1CCC(C(=O)NO)(S(=O)(=O)c2ccc(Oc3ccc(Cl)c(C)c3)cc2)CC1.Cl` [Example 81, 4-[[4-(4-chloro-3-methylphenoxy)phenyl]sulfonyl]-N-hydroxy-1-(2-propynyl)-4-piperidinecarboxamide, Monohydrochloride] the IC50 (recombinant human MMP-13; [2]) was 0.3 nM, the IC50 (recombinant human MMP-1; [3]) was 3300 nM and the IC50 (recombinant human MMP-2; [4]) was 0.1 nM. For the same molecule, the “t½ Hour” value [1] was 0.76 h.
In the case of `O=C(NO)C1(S(=O)(=O)c2ccc(Oc3ccc(SC(F)(F)F)cc3)cc2)CCOCC1` [Example 382, Tetrahydro-N-hydroxy-4-[[4-[4-[(trifluoromethyl)thio]phenoxy]phenyl]-sulfonyl]-2H-pyran-4-carboxamide], the “t½ Hour” value [1] is reported as 1.71 h.
With `CC(=O)N1CCC(C(=O)NO)(S(=O)(=O)c2ccc(Oc3ccccc3)cc2)CC1` [Example 12] the IC50 (recombinant human MMP-13) was < 0.1 nM, the IC50 (recombinant human MMP-1) was 464 nM and the IC50 (recombinant human MMP-2; MMP-2 IC50 (nM)) was < 0.1 nM. The “AUC (0-∞)” value ([1]; rat, in vivo) was 22.11, the t1/2 ([1]; rat, in vivo) was 0.86 h and the “Blood Level @ 3 min” value ([1]; rat, in vivo, iv, 20 mg/kg) was 73.54 µg/mL.
For `COCCN1CCC(C(=O)NO)(S(=O)(=O)c2ccc(Oc3ccc(OC(F)(F)F)cc3)cc2)CC1.Cl` [Example 416, N-hydroxy-1-(2-methoxyethyl)-4-[[4-[4-(trifluoromethoxy)phenoxy]phenyl]sulfonyl}-4-piperidinecarboxamide, Monohydrochloride], the “t½ Hour” value [1] was 2.94 h.
In the case of `O=C(NO)C1(S(=O)(=O)c2ccc(Oc3ccccc3)cc2)CCOCC1` [Example 94, Tetrahydro-N-hydroxy-4-[(4-phenoxyphenyl)sulfonyl]-2H-pyran-4-carboxamide], the IC50 (recombinant human MMP-13; [2]) is reported as < 0.1 nM, the IC50 (recombinant human MMP-2; [4]) is reported as < 0.1 nM and the “t½ Hour” value [1] is reported as 1.71 h.
In the case of `O=C(NO)C1(S(=O)(=O)c2ccc(Oc3ccc(C(F)(F)F)cc3)cc2)CCN(Cc2ccccn2)CC1` [Example 391, N-hydroxy-1-(2-pyridinylmethyl)-4-[[4-[4-(trifluoromethyl)phenoxy]phenyl]-sulfonyl]-4-piperidinecarboxamide, Dihydrochloride], the “t½ Hour” value [1] is reported as 1.45 h.
For `Cc1cc(Oc2ccc(S(=O)(=O)C3(C(=O)NO)CCNCC3)cc2)ccc1Cl.Cl` [Example 79], the “t½ Hour” value [1] was 1.82 h.
With `C#CCN1CCC(C(=O)NO)(S(=O)(=O)c2ccc(Oc3ccc(C)c(C)c3)cc2)CC1.Cl` [Example 43, 4-[[4-(3,4-Dimethylphenoxyl)phenyl]sulfonyl]-N-hydroxy-1-(2-propynyl)-4-piperidinecarboxamide, Monhydrochloride] the IC50 (recombinant human MMP-13; [2]) was 0.8 nM, the IC50 (recombinant human MMP-1; [3]) was 7000 nM and the IC50 (recombinant human MMP-2; [4]) was 0.4 nM. The “t½ Hour” value [1] was 0.82 h.
With `Cl.O=C(NO)C1(S(=O)(=O)c2ccc(Oc3ccc(C(F)(F)F)cc3)cc2)CCN(C2CC2)CC1` [Example 427, 1-cyclopropyl-N-hydroxy-4-[[4-[4-(trifluoromethyl)phenoxy]phenyl]sulfonyl]-4-piperidinecarboxamide, Monohydrochloride] the “t½ Hour” value [1] was 2.85 h.
